Results taken from the supplement of paper PMC8967900.
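Also: ALL cell lines in 384-well plates, five doses spanning 10,000-fold, each plate scaled between vehicle and 100 µmol/L benzalkonium chloride controls, sDSS an adapted area-under-curve metric.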

What follows are molecules tested on LC4-1 (assay: selective drug sensitivity score (sDSS, relative to normal bone marrow) (sDSS (score)); higher = more potent and effective on the cell line relative to normal bone marrow cells). Conditions: 72 h.
In the case of `NCCNc1ccc(NCCN)c2c1C(=O)c1ccncc1C2=O` [Pixantrone] (top concentration 10000 nM), the “selective drug sensitivity score” value is reported as -2.76. For `c1cc(CN2CCCNCCNCCCNCC2)ccc1CN1CCCNCCNCCCNCC1` [Plerixafor] (top concentration 10000 nM), the “selective drug sensitivity score” value was 0. For `O=C(c1ccc(OCCN2CCCCC2)cc1)c1c(-c2ccc(O)cc2)sc2cc(O)ccc12` [Raloxifene] (top concentration 10000 nM), the “selective drug sensitivity score” value was -0.38. `CN(C)C(=O)c1cc2cnc(Nc3ccc(N4CCNCC4)cn3)nc2n1C1CCCC1` [Ribociclib] (top concentration 10000 nM) was tested, and the “selective drug sensitivity score” value was 4.18. With `CN1CCN(CCOc2cc(OC3CCOCC3)c3c(Nc4c(Cl)ccc5c4OCO5)ncnc3c2)CC1` [Saracatinib] (top concentration 10000 nM) the “selective drug sensitivity score” value was 2.98. With `C=CC(=O)Nc1cccc(Nc2nc(Nc3ccc(OCCOC)cc3)ncc2F)c1` [Spebrutinib] (top concentration 1000 nM) the “selective drug sensitivity score” value was 0.54. For `C[C@@H]1CN(Cc2ccc(F)cc2)[C@@H](C)CN1C(=O)c1cc2c(C(=O)C(=O)N(C)C)cn(C)c2cc1Cl` [Talmapimod] (top concentration 10000 nM), the “selective drug sensitivity score” value was 0. For `C[C@@H](C(=O)O)c1ccc(-c2ccccc2)c(F)c1` [Tarenflurbil] (top concentration 10000 nM), the “selective drug sensitivity score” value was 0.64. With `CNC(=O)c1cc(COc2nnc(Nc3ccc(Cl)cc3)c3ccoc23)ccn1` [Telatinib] (top concentration 10000 nM) the “selective drug sensitivity score” value was 0.7. For `O=c1sn(-c2cccc3ccccc23)c(=O)n1Cc1ccccc1` [Tideglusib] (top concentration 3000 nM), the “selective drug sensitivity score” value was -0.3. `COc1cc2nccc(Oc3ccc(NC(=O)Nc4cc(C)on4)c(Cl)c3)c2cc1OC` [Tivozanib] (top concentration 10000 nM) was tested, and the “selective drug sensitivity score” value was 5.96. `Cc1cc(Nc2cc(N3CCN(C)CC3)nc(Sc3ccc(NC(=O)C4CC4)cc3)n2)n[nH]1` [Tozasertib] (top concentration 10000 nM) was tested, and the “selective drug sensitivity score” value was 20.6. With `CC1=C(/C=C/C(C)=C/C=C/C(C)=C/C(=O)O)C(C)(C)CCC1` [Tretinoin] (top concentration 10000 nM) the “selective drug sensitivity score” value was -2.4. In the case of `COC(=O)c1ccc2c(c1)[nH]c1ncnc(NCCCN3CCCCC3)c12` [UM729] (top concentration 10000 nM), the “selective drug sensitivity score” value is reported as 1.54. `COc1cc2c(NC3CCN(C(C)C)CC3)nc(N3CCC(F)(F)CC3)nc2cc1OCCCN1CCCC1` [UNC0642] (top concentration 10000 nM) was tested, and the “selective drug sensitivity score” value was -1.14. `O=C(c1ccc(C(=O)N2CCC(N3CCCC3)CC2)c(Nc2ccccc2)c1)N1CCC(N2CCCC2)CC1` [UNC1215] (top concentration 10000 nM) was tested, and the “selective drug sensitivity score” value was 0. In the case of `CCCC(CCC)C(=O)O` [Valproic_acid] (top concentration 1000000 nM), the “selective drug sensitivity score” value is reported as 0. `Clc1ccc(Nc2nnc(Cc3ccncc3)c3ccccc23)cc1` [Vatalanib] (top concentration 10000 nM) was tested, and the “selective drug sensitivity score” value was 0. In the case of `CCCS(=O)(=O)Nc1ccc(F)c(C(=O)c2c[nH]c3ncc(-c4ccc(Cl)cc4)cc23)c1F` [Vemurafenib] (top concentration 10000 nM), the “selective drug sensitivity score” value is reported as 3.56.

These molecules were tested on TANOUE in the same assay as above. Conditions: 72 h.
In the case of `CC(=O)[C@]1(O)Cc2c(O)c3c(c(O)c2[C@@H](O[C@H]2C[C@H](N)[C@H](O)[C@H](C)O2)C1)C(=O)c1ccccc1C3=O` [Idarubicin] (top concentration 1000 nM), the “selective drug sensitivity score” value is reported as -12.6. For `COc1cc2nccc(Oc3ccc(NC(=O)NC4CC4)c(Cl)c3)c2cc1C(N)=O` [Lenvatinib] (top concentration 2500 nM), the “selective drug sensitivity score” value was -0.24. In the case of `N#Cc1ccc(C(c2ccc(C#N)cc2)n2cncn2)cc1` [Letrozole] (top concentration 10000 nM), the “selective drug sensitivity score” value is reported as 1.16. With `CCNCCS(=O)(=O)NC[C@@]1(c2ccccc2)SC(NC(=O)C(C)(C)C)=NN1C(=O)C(C)(C)C` [Litronesib] (top concentration 1000 nM) the “selective drug sensitivity score” value was -7.36. For `CC[C@H](C)C(=O)O[C@H]1C[C@@H](C)C=C2C=C[C@H](C)[C@H](CC[C@@H]3C[C@@H](O)CC(=O)O3)[C@H]21` [Lovastatin] (top concentration 10000 nM), the “selective drug sensitivity score” value was -0.1. For `Cn1cc(-c2cnn3c(N)c(Br)c([C@@H]4CCCNC4)nc23)cn1` [MK-8776] (top concentration 2500 nM), the “selective drug sensitivity score” value was -1.46. `Cc1cnc(-c2ccccc2C(C)C)nc1NCc1ccc(-n2ccnn2)cc1` [ML323] (top concentration 10000 nM) was tested, and the “selective drug sensitivity score” value was 1.44. In the case of `O=C(CCNC(=O)c1ccc(OC(F)(F)F)cc1)N[C@@H]1CCCc2ccccc21` [ML390] (top concentration 50000 nM), the “selective drug sensitivity score” value is reported as 3.5. For `CN(C)C(=N)NC(=N)N` [Metformin] (top concentration 100000 nM), the “selective drug sensitivity score” value was -0.02. With `C[C@H]1C[C@@H]2[C@H]([C@@H](O)C[C@@]3(C)[C@H]2CC[C@]3(O)C(=O)CO)[C@@]2(C)C=CC(=O)C=C12` [Methylprednisolone] (top concentration 10000 nM) the “selective drug sensitivity score” value was -2.3. In the case of `FC(F)(F)c1ccc(/C=C/c2nc(COc3ccc(CCCCn4ccnn4)cc3)co2)cc1` [Mubritinib] (top concentration 1000 nM), the “selective drug sensitivity score” value is reported as 18.7. With `COc1cc2c(cc1OC(C)C)[C@H](c1ccc(Cl)cc1)N(c1ccc(N(C)C[C@H]3CC[C@H](N4CCN(C)C(=O)C4)CC3)cc1)C(=O)C2` [NVP-CGM097] (top concentration 25000 nM) the “selective drug sensitivity score” value was -3.04. `CCOc1cc2ncc(C#N)c(Nc3ccc(OCc4ccccn4)c(Cl)c3)c2cc1NC(=O)/C=C/CN(C)C` [Neratinib] (top concentration 1000 nM) was tested, and the “selective drug sensitivity score” value was -0.72. For `COc1ncc(-c2ccc3nccc(-c4ccnnc4)c3c2)cc1NS(=O)(=O)c1ccc(F)cc1F` [Omipalisib] (top concentration 1000 nM), the “selective drug sensitivity score” value was -4. With `CN1CCN(c2cc(C(=O)Nc3ccc4c(c3)-c3c(c(C(N)=O)nn3-c3ccc(F)cc3)CC4)c(Cl)cn2)CC1` [PHA-408] (top concentration 10000 nM) the “selective drug sensitivity score” value was -4.92. `OC[C@H]1O[C@@H](n2cnc3c2N=CNC[C@H]3O)C[C@@H]1O` [Pentostatin] (top concentration 10000 nM) was tested, and the “selective drug sensitivity score” value was 0.36. For `CC(C)N(C[C@H]1O[C@@H](n2cnc3c(N)ncnc32)[C@H](O)[C@@H]1O)[C@H]1C[C@@H](CCc2nc3cc(C(C)(C)C)ccc3[nH]2)C1` [Pinometostat] (top concentration 1000 nM), the “selective drug sensitivity score” value was 0. `Cc1ccc(=O)n(-c2ccccc2)c1` [Pirfenidone] (top concentration 10000 nM) was tested, and the “selective drug sensitivity score” value was 0. With `NCCNc1ccc(NCCN)c2c1C(=O)c1ccncc1C2=O` [Pixantrone] (top concentration 10000 nM) the “selective drug sensitivity score” value was -2.76. `c1cc(CN2CCCNCCNCCCNCC2)ccc1CN1CCCNCCNCCCNCC1` [Plerixafor] (top concentration 10000 nM) was tested, and the “selective drug sensitivity score” value was 0. For `O=C(c1ccc(OCCN2CCCCC2)cc1)c1c(-c2ccc(O)cc2)sc2cc(O)ccc12` [Raloxifene] (top concentration 10000 nM), the “selective drug sensitivity score” value was -1.38. With `CN(C)C(=O)c1cc2cnc(Nc3ccc(N4CCNCC4)cn3)nc2n1C1CCCC1` [Ribociclib] (top concentration 10000 nM) the “selective drug sensitivity score” value was -2.02. With `CN1CCN(CCOc2cc(OC3CCOCC3)c3c(Nc4c(Cl)ccc5c4OCO5)ncnc3c2)CC1` [Saracatinib] (top concentration 10000 nM) the “selective drug sensitivity score” value was -2.02. For `C=CC(=O)Nc1cccc(Nc2nc(Nc3ccc(OCCOC)cc3)ncc2F)c1` [Spebrutinib] (top concentration 1000 nM), the “selective drug sensitivity score” value was -0.16. `C[C@@H]1CN(Cc2ccc(F)cc2)[C@@H](C)CN1C(=O)c1cc2c(C(=O)C(=O)N(C)C)cn(C)c2cc1Cl` [Talmapimod] (top concentration 10000 nM) was tested, and the “selective drug sensitivity score” value was 0. `C[C@@H](C(=O)O)c1ccc(-c2ccccc2)c(F)c1` [Tarenflurbil] (top concentration 10000 nM) was tested, and the “selective drug sensitivity score” value was 4.74. For `CNC(=O)c1cc(COc2nnc(Nc3ccc(Cl)cc3)c3ccoc23)ccn1` [Telatinib] (top concentration 10000 nM), the “selective drug sensitivity score” value was 0. With `O=c1sn(-c2cccc3ccccc23)c(=O)n1Cc1ccccc1` [Tideglusib] (top concentration 3000 nM) the “selective drug sensitivity score” value was -0.3. For `COc1cc2nccc(Oc3ccc(NC(=O)Nc4cc(C)on4)c(Cl)c3)c2cc1OC` [Tivozanib] (top concentration 10000 nM), the “selective drug sensitivity score” value was -3.64. In the case of `Cc1cc(Nc2cc(N3CCN(C)CC3)nc(Sc3ccc(NC(=O)C4CC4)cc3)n2)n[nH]1` [Tozasertib] (top concentration 10000 nM), the “selective drug sensitivity score” value is reported as -6.64. In the case of `CC1=C(/C=C/C(C)=C/C=C/C(C)=C/C(=O)O)C(C)(C)CCC1` [Tretinoin] (top concentration 10000 nM), the “selective drug sensitivity score” value is reported as -2.4. With `COC(=O)c1ccc2c(c1)[nH]c1ncnc(NCCCN3CCCCC3)c12` [UM729] (top concentration 10000 nM) the “selective drug sensitivity score” value was -0.06. `COc1cc2c(NC3CCN(C(C)C)CC3)nc(N3CCC(F)(F)CC3)nc2cc1OCCCN1CCCC1` [UNC0642] (top concentration 10000 nM) was tested, and the “selective drug sensitivity score” value was -3.74. `O=C(c1ccc(C(=O)N2CCC(N3CCCC3)CC2)c(Nc2ccccc2)c1)N1CCC(N2CCCC2)CC1` [UNC1215] (top concentration 10000 nM) was tested, and the “selective drug sensitivity score” value was 0. In the case of `CCCC(CCC)C(=O)O` [Valproic_acid] (top concentration 1000000 nM), the “selective drug sensitivity score” value is reported as 0. In the case of `Clc1ccc(Nc2nnc(Cc3ccncc3)c3ccccc23)cc1` [Vatalanib] (top concentration 10000 nM), the “selective drug sensitivity score” value is reported as 0. With `CCCS(=O)(=O)Nc1ccc(F)c(C(=O)c2c[nH]c3ncc(-c4ccc(Cl)cc4)cc23)c1F` [Vemurafenib] (top concentration 10000 nM) the “selective drug sensitivity score” value was -1.14.
